Assays:
MDR1 (P-gp) = MDR1 (P-gp) (Homo sapiens (Human), UniProt P08183); experiment: in vitro; conditions: pig, LLC-PK1
Description: Both LLC-PK1 and MDR1 transfected LLC-PK1 cells were cultured and plated according to manufacturer's recommendations with the exception that the passage media contained only 2% fetal bovine serum so as to extend passage time out to seven days.
Both positive and negative controls were used to assess functionality of P-gp or BCRP efflux in the assays. Stock solutions for assay controls and the test article were prepared in DMSO for final test concentrations of 10 μM and 1 μM, respectively. Final organic concentration in the assay was 1%. All dosing solutions contained 10 μM lucifer yellow to monitor LLC PK1 or MDCKII cell monolayer integrity.
For the apical to basolateral determination (A to B), 75 μL of the test article in transport buffer were added to the apical side of the individual transwells and 250 μL of basolateral media, without compound or lucifer yellow, were added to each well. For the basolateral to apical determination (B to A), 250 μL of test article in transport buffer were added to each well and 75 μL transport buffer, without compound or lucifer yellow, were added to each transwell. All tests were performed in triplicate, and each compound was tested for both apical to basolateral and basolateral to apical transport. The plates were incubated for 2 hours on a Lab-Line Instruments Titer Orbital Shaker (VWR, West Chester, PA) at 50 rpm and 37° C. with 5% CO2. All culture plates were removed from the incubator, 50 μL of media were removed from the apical and basolateral portion of each well, and added to 150 μL of 1 μM labetalol in 2:1 acetonitrile (ACN): H2O, v/v.
The plates were read using a Molecular Devices (Sunnyvale, CA) Gemini Fluorometer to evaluate the lucifer yellow concentrations at excitation/emission wavelengths of 425/535 nm. These values were accepted when found to be below 2% for apical to basolateral and 5% basolateral to apical flux across the MDR1-transfected LLC-PK1 or BCRP-transfected MDCKII cell monolayers. The plates were sealed, and the contents of each well analyzed by LC MS/MS. The compound concentrations were determined from the ratio of the peak areas of the compound to the internal standard (labetalol) in comparison to the dosing solution.
The LC-MS/MS system was comprised of an HTS-PAL autosampler (Leap Technologies, Carrboro, NC), an HP1200 HPLC (Agilent, Palo Alto, CA), and a MDS Sciex 4000 Q Trap system (Applied Biosystems, Foster City, CA). […] The total run time, including re-equilibration, for a single injection was 1.2 minutes. Mass spectrometric detection of the analytes was accomplished using the ion spray positive mode. Analyte responses were measured by multiple reaction monitoring (MRM) of transitions unique to each compound (the protonated precursor ion and selected product ions for each test article and m/z 329 to m/z 162 for labetalol, the internal standard).
An efflux ratio is calculated from the mean apical to basolateral (A-B) Papp data and basolateral to apical (B-A) Papp data: Efflux ratio=Papp(B−A)/Papp(A−B)

[1] = target: ErbB2 with Exon 20 YVMA insertion (HER2-YVMA) (Homo sapiens (Human), UniProt P04626, INS775YVMA); experiment: Cellular Phosphorylation Assay, Assay 4 (constitutive ErbB2 phosphorylation, NIH 3T3 cells); type: cell-based
ErbB2 WT = ErbB2 WT (Homo sapiens (Human), UniProt P04626); experiment: ErbB Enzyme Assay (HTRF KinEASE-TK), Assay 2; type: biochemical
EGFR = EGFR (Homo sapiens (Human), UniProt P00533); experiment: ErbB Enzyme Assay (HTRF KinEASE-TK), Assay 3; type: biochemical
EGFR wild type (EGFR WT) = EGFR wild type (EGFR WT) (Homo sapiens (Human), UniProt P00533); experiment: Cellular Phosphorylation Assay, Assay 5 (EGF-stimulated EGFR phosphorylation, NIH 3T3 cells); type: cell-based
BCRP = BCRP (Homo sapiens (Human), UniProt Q9UNQ0); experiment: BCRP MDCKII efflux assay (Assay 7); type: in vitro ADME; conditions: dog; efflux ratio Papp(B-A)/Papp(A-B), BCRP MDCKII cells; read-out: Assay 7 Pe Ratio
Description: Assay conditions included with and without the BCRP-specific inhibitor, KO143, at a concentration of 0.3 μM to ascertain the contribution of BCRP to the efflux value of the test compound.
Final organic concentration in the assay was 1%.

[2] = EGF-stimulated EGFR WT phosphorylation
[3] = cellular ErbB2 YVMA phosphorylation
[4] = cellular EGFR WT phosphorylation, EGF-stimulated

ErbB2 WT, sequence (P04626 23-1255): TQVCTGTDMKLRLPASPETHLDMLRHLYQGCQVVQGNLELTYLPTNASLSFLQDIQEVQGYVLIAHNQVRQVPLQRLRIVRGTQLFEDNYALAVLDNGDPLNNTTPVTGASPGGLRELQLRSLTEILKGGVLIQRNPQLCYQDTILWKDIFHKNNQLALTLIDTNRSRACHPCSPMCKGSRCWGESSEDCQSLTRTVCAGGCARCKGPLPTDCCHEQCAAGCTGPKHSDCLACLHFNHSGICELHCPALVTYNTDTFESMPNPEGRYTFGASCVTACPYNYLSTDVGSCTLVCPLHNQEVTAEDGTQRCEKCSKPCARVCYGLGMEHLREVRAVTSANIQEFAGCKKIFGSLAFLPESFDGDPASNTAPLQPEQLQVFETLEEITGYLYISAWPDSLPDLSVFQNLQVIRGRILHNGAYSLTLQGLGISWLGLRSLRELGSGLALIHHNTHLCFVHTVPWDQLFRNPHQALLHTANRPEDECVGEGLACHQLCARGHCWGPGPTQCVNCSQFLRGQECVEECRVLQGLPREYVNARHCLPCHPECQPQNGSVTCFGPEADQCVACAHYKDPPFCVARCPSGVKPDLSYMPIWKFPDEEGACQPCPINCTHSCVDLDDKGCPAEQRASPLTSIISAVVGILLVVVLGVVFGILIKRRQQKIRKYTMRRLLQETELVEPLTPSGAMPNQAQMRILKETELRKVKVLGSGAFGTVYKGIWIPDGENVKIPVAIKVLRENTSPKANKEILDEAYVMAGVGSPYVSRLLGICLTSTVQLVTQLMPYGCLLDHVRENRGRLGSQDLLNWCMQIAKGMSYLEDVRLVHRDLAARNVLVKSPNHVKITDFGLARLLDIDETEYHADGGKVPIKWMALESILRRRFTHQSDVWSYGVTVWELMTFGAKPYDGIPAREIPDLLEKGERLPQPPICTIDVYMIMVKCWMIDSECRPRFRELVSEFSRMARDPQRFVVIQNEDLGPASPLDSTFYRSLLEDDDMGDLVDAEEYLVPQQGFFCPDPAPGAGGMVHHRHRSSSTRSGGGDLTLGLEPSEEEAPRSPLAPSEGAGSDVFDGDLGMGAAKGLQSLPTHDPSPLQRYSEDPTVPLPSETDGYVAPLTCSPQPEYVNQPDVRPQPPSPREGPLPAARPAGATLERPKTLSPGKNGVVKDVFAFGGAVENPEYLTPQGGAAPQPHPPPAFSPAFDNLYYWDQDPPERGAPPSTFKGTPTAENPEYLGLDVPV
MDR1 (P-gp), sequence (P08183 whole entry): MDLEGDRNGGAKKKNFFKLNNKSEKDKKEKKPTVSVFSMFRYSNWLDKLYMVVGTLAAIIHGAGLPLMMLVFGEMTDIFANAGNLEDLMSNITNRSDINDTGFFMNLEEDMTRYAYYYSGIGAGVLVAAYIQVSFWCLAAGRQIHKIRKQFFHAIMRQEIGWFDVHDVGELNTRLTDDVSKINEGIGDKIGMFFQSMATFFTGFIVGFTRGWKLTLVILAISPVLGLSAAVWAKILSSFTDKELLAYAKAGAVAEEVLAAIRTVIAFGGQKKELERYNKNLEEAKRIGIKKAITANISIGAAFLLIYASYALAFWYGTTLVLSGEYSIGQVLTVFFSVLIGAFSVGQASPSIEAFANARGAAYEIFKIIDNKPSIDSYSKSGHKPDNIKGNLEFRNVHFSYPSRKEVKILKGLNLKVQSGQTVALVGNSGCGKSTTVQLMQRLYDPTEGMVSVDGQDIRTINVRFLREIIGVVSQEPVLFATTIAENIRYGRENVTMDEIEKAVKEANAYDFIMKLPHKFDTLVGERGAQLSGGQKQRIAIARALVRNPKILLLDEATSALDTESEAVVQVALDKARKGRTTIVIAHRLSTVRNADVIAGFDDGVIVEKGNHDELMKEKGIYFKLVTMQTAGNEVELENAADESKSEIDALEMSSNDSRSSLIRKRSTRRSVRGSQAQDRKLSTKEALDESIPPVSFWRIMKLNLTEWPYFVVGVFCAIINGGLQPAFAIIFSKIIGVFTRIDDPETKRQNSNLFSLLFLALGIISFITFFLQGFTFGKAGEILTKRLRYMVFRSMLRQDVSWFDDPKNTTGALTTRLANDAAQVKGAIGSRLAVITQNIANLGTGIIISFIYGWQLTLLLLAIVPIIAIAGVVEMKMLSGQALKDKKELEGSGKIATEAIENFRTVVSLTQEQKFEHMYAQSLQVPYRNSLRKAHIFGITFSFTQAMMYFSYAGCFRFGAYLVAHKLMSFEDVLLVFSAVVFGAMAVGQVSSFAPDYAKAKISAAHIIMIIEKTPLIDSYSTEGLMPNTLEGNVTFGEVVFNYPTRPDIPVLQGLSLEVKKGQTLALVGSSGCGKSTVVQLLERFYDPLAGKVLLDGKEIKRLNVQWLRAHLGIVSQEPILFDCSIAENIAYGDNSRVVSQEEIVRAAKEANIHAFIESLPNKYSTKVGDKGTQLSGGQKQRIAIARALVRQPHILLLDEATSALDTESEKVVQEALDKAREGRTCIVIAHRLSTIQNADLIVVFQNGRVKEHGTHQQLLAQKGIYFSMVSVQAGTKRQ
BCRP, sequence (Q9UNQ0 whole entry): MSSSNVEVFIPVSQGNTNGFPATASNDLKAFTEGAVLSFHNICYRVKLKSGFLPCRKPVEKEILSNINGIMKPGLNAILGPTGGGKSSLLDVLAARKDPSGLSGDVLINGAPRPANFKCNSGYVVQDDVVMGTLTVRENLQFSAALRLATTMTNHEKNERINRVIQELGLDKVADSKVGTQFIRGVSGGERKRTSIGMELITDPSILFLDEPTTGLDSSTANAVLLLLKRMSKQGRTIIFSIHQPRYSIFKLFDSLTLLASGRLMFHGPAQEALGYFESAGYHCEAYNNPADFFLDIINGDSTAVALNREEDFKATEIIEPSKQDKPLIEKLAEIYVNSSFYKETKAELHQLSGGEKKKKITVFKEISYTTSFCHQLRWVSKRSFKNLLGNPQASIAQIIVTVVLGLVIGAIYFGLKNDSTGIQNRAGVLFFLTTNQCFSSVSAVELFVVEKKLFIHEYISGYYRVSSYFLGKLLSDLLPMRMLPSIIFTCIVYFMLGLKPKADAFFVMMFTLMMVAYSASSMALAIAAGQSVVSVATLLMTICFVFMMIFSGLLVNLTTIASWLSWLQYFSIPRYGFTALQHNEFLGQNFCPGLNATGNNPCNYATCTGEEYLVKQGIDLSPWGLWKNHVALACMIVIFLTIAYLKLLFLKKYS
ErbB2 with Exon 20 YVMA insertion (HER2-YVMA), sequence (P04626 other isoform, or with tags, fused parts or gaps ins YVMA behind 775): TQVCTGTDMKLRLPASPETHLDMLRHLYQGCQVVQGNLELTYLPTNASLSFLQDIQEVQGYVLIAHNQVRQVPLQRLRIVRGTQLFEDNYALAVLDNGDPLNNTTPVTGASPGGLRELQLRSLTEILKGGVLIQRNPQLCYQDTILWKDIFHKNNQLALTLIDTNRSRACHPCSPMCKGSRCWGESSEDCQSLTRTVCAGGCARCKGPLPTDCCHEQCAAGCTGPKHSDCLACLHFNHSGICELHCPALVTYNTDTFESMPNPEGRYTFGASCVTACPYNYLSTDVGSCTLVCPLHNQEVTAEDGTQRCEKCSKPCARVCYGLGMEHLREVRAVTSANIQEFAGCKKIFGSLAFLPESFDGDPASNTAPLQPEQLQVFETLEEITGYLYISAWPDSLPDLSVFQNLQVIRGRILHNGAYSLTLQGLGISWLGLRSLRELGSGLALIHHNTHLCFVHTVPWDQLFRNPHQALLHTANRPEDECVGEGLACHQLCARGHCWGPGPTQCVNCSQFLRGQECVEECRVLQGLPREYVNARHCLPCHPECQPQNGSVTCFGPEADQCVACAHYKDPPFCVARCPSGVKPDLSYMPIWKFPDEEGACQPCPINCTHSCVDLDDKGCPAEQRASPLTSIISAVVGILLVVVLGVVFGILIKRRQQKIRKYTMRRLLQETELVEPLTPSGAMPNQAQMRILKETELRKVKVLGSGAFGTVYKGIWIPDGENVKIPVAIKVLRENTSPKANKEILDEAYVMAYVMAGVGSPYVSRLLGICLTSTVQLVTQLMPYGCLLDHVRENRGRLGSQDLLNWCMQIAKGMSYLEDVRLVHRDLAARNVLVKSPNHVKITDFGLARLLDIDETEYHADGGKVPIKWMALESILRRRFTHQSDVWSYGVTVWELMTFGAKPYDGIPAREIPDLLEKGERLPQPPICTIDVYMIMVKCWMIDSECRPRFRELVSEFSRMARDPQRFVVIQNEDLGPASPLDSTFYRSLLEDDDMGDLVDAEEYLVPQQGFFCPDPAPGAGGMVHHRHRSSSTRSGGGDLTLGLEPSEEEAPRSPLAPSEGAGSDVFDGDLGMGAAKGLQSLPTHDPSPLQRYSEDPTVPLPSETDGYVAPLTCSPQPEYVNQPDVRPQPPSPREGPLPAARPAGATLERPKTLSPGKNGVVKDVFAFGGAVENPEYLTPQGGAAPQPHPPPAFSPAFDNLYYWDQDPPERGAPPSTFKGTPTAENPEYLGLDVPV

| Compound | efflux ratio at 2 h, 1 µM (MDR1 (P-gp)) | IC50 ([1]; ErbB2 YVMA phosphorylation) | IC50 (ErbB2 WT; ErbB2 WT enzyme) | IC50 (EGFR; EGFR enzyme) | IC50 (EGFR wild type (EGFR WT); [2]) | efflux ratio at 2 h, 1 µM (BCRP) | IC50 [1, 3] | IC50 (ErbB2 WT; ErbB2 WT enzyme assay) | IC50 (EGFR; EGFR enzyme assay) | IC50 (EGFR wild type (EGFR WT); [4]) |
| --- | --- | --- | --- | --- | --- | --- | --- | --- | --- | --- |
| C=CC(=O)N1CCC(Oc2nc3c(Nc4ccc(Oc5ccn6ncnc6c5)c(Cl)c4F)ncnc3cc2OC)CC1 [Example 39, 1-(4-((4-((4-([1,2,4]triazolo[1,5-a]pyridin-7-yloxy)-3-chloro-2-fluorophenyl)amino)-7-methoxypyrido[3,2-d]pyrimidin-6-yl)oxy)piperidin-1-yl)prop-2-en-1-one] | 2.3 | 0.0053 µM | 0.0055 µM | 0.0493 µM | 0.0468 µM | 2.6 | – | – | – | – |
| C=CC(=O)N1CCN(c2ccc3ncnc(Nc4ccc(Oc5ccn6ncnc6c5)c(C)c4F)c3n2)CC1(C)C [Example 31, 1-(4-(4-((4-([1,2,4]triazolo[1,5-a]pyridin-7-yloxy)-2-fluoro-3-methylphenyl)amino)pyrido[3,2-d]pyrimidin-6-yl)-2,2-dimethylpiperazin-1-yl)prop-2-en-1-one] | 1.3 | 0.0227 µM | 0.0143 µM | 6.54 µM | 0.928 µM | 1.8 | – | – | – | – |
| C=CC(=O)N1CCN(c2ccc3ncnc(Nc4ccc(Oc5ccn6ncnc6c5)c(C)c4F)c3n2)C[C@H]1C(C)(C)C [Example 303] | 1.3 | – | – | – | – | 1.1 | 0.0183 µM | 0.02 µM | 5.07 µM | 2.58 µM |
| C=CC(=O)N1C[C@H]2CC[C@@H]1[C@H](c1ccc3ncnc(Nc4ccc(Oc5cnc6c(c5)ncn6C)c(C)c4F)c3n1)C2 [Example 426] | 0.7 | – | – | – | – | 2 | 0.0332 µM | 0.183 µM | ≥ 10 µM | ≥ 5 µM |
| C=CC(=O)N1CCC(Sc2ccc3ncnc(Nc4cc(C)c(Oc5ccc6c(c5)ncn6C)cc4F)c3n2)CC1 [Example 64, 1-(4-((4-((2-fluoro-5-methyl-4-((1-methyl-1H-benzo[d]imidazol-5-yl)oxy)phenyl)amino)pyrido[3,2-d]pyrimidin-6-yl)thio)piperidin-1-yl)prop-2-en-1-one] | 2.4 | 0.0329 µM | 0.0374 µM | ≥ 10 µM | ≥ 5 µM | 4.2 | – | – | – | – |
| C=CC(=O)N1CC2(C1)CN(c1ccc3ncnc(Nc4ccc(Oc5ccn6ncnc6c5)c(Cl)c4F)c3n1)C2 [Example 101, 1-(6-(4-((4-([1,2,4]triazolo[1,5-a]pyridin-7-yloxy)-3-chloro-2-fluorophenyl)amino)pyrido[3,2-d]pyrimidin-6-yl)-2,6-diazaspiro[3.3]heptan-2-yl)prop-2-en-1-one] | 1.9 | 0.032 µM | 0.0392 µM | 1.38 µM | ≥ 5 µM | 2.5 | – | – | – | – |
| C=CC(=O)N1CCN(c2ccc3ncnc(Nc4ccc(Oc5cnc6c(c5)ncn6C)c(Cl)c4F)c3n2)CC1(C)C [Example 239, 1-(4-(4-((3-chloro-2-fluoro-4-((3-methyl-3H-imidazo[4,5-b]pyridin-6-yl)oxy)phenyl)amino)pyrido[3,2-d]pyrimidin-6-yl)-2,2-dimethylpiperazin-1-yl)prop-2-en-1-one] | 1.8 | 0.0243 µM | 0.0367 µM | 0.955 µM | 2.25 µM | 5.2 | – | – | – | – |
| C=CC(=O)N1C[C@@H]2C[C@H](c3ccc4ncnc(Nc5cc(C)c(Oc6ccc7c(c6)ncn7C)cc5F)c4n3)C[C@H]1C2 [Example 388] | 3.2 | – | – | – | – | 1.8 | 0.0281 µM | 0.0407 µM | 1.8 µM | 1.7 µM |
| C=CC(=O)N1C[C@@H]2CC[C@H]1CN2c1ccc2ncnc(Nc3cc(C)c(Oc4ccn5ncnc5c4)cc3F)c2n1 [Example 319] | 4.8 | – | – | – | – | 3.6 | 0.0057 µM | 0.0081 µM | 0.192 µM | 0.264 µM |
| C=CC(=O)N1C[C@H]2C[C@@H]1CN(c1ccc3ncnc(Nc4cc(Cl)c(Oc5ccc6c(c5)ncn6C)cc4F)c3n1)C2 [Example 107, 1-((1S,5R)-3-(4-((5-chloro-2-fluoro-4-((1-methyl-1H-benzo[d]imidazol-5-yl)oxy)phenyl)amino)pyrido[3,2-d]pyrimidin-6-yl)-3,6-diazabicyclo[3.2.1]octan-6-yl)prop-2-en-1-one] | 1.6 | 0.0178 µM | 0.237 µM | ≥ 10 µM | ≥ 5 µM | 2.7 | – | – | – | – |
| C=CC(=O)N1C[C@@H]2C[C@H]1CN(c1ccc3ncnc(Nc4ccc(Oc5ccc6c(c5)ncn6C)c(C)c4F)c3n1)C2 [Example 109, 1-((1R,5S)-3-(4-((2-fluoro-3-methyl-4-((1-methyl-1H-benzo[d]imidazol-5-yl)oxy)phenyl)amino)pyrido[3,2-d]pyrimidin-6-yl)-3,6-diazabicyclo[3.2.1]octan-6-yl)prop-2-en-1-one] | 2 | 0.0134 µM | 0.282 µM | ≥ 10 µM | ≥ 5 µM | 2 | – | – | – | – |
| C=CC(=O)N1CC2CC(C1)N2c1ccc2ncnc(Nc3cc(Cl)c(Oc4ccn5ncnc5c4)cc3F)c2n1 [Example 45, 1-(6-(4-((4-([1,2,4]triazolo[1,5-a]pyridin-7-yloxy)-5-chloro-2-fluorophenyl)amino)pyrido[3,2-d]pyrimidin-6-yl)-3,6-diazabicyclo[3.1.1]heptan-3-yl)prop-2-en-1-one] | 2.5 | 0.0171 µM | 0.222 µM | 8.3 µM | 2.76 µM | 5.6 | – | – | – | – |
| C=CC(=O)N1CCCC(c2ccc3ncnc(Nc4cc(C)c(Oc5ccn6ncnc6c5)cc4F)c3n2)CC1 (stereo not drawn) [Example 368] | 1.4 | – | – | – | – | 2.7 | 0.0347 µM | 0.0761 µM | 9.63 µM | ≥ 5 µM |
| C=CC(=O)N1CC[C@@H]2C[C@H]1CN2c1ccc2ncnc(Nc3ccc(Oc4ccn5ncnc5c4)c(C)c3F)c2n1 [Example 65, 1-((1S,5R)-6-(4-((4-([1,2,4]triazolo[1,5-a]pyridin-7-yloxy)-2-fluoro-3-methylphenyl)amino)pyrido[3,2-d]pyrimidin-6-yl)-2,6-diazabicyclo[3.2.1]octan-2-yl)prop-2-en-1-one] | 1.4 | 0.0042 µM | 0.0174 µM | 0.17 µM | 0.146 µM | 4 | – | – | – | – |
| C=CC(=O)N1C2CC1CN(c1ccc3ncnc(Nc4ccc(Oc5ccn6ncnc6c5)c(Cl)c4F)c3n1)C2 [Example 25, 1-(3-(4-((4-([1,2,4]triazolo[1,5-a]pyridin-7-yloxy)-3-chloro-2-fluorophenyl)amino)pyrido[3,2-d]pyrimidin-6-yl)-3,6-diazabicyclo[3.1.1]heptan-6-yl)prop-2-en-1-one] | 2.2 | 0.0121 µM | 0.0501 µM | 0.558 µM | 0.324 µM | 6.8 | – | – | – | – |
| C=CC(=O)N1C[C@H]2C[C@@H]1CN(c1ccc3ncnc(Nc4ccc(Oc5ccc6c(c5)ncn6C)c(C)c4F)c3n1)C2 [Example 118, 1-((1S,5R)-3-(4-((2-fluoro-3-methyl-4-((1-methyl-1H-benzo[d]imidazol-5-yl)oxy)phenyl)amino)pyrido[3,2-d]pyrimidin-6-yl)-3,6-diazabicyclo[3.2.1]octan-6-yl)prop-2-en-1-one] | 2.2 | 0.0101 µM | 0.0541 µM | 6.09 µM | ≥ 5 µM | 4.1 | – | – | – | – |
| C=CC(=O)N1CCN(c2ccc3ncnc(Nc4ccc(Oc5ccc6c(c5)ncn6C)c(Cl)c4F)c3n2)CC1(C)C [Example 262] | 1.7 | – | – | – | – | 4.6 | 0.0324 µM | 0.0189 µM | ≥ 10 µM | ≥ 5 µM |
| C=CC(=O)N1C[C@H](c2ccc3ncnc(Nc4ccc(Oc5ccc6c(c5)ncn6C)c(C)c4F)c3n2)C[C@H]1C [Example 193, 1-((2R,4R)-4-(4-((2-fluoro-3-methyl-4-((1-methyl-1H-benzo[d]imidazol-5-yl)oxy)phenyl)amino)pyrido[3,2-d]pyrimidin-6-yl)-2-methylpyrrolidin-1-yl)prop-2-en-1-one] | 0.7 | 0.016 µM | 0.0618 µM | ≥ 10 µM | ≥ 5 µM | 3.4 | – | – | – | – |
| C=CC(=O)N1CC[C@@H]2C[C@H](c3ccc4ncnc(Nc5cc(C)c(Oc6ccn7ncnc7c6)cc5F)c4n3)C[C@@H]21 (single isomer, unassigned) [Example 225] | 1.2 | 0.0084 µM | 0.0265 µM | 0.422 µM | 0.768 µM | 2 | – | – | – | – |
| C=CC(=O)N1CCCC(c2ccc3ncnc(Nc4ccc(Oc5cnc6c(c5)ncn6C)c(C)c4)c3n2)CC1 (stereo not drawn) [Example 403] | 2 | – | – | – | – | 4 | 0.0134 µM | 0.0613 µM | 1.29 µM | ≥ 5 µM |

— patent US12447153B2, “HER2 mutation inhibitors” (Array BioPharma Inc., priority 2021, dated 2025)
